ChEMBL document CHEMBL1201862, “PubChem BioAssay data set” (2004)
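Five compound concentrations were applied to cells in 96-well plates for 48 hours; endpoints were derived by simple linear interpolation of the resulting dose-response curve. GI50 = concentration required for 50% inhibition of growth.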 Activity calls are given as the source filed them. Rule as the data show it: active = GI50 up to about 1.1 µM and inactive = higher.

Key:
Assay in all cases: DTP human tumour cell line panel, 48 h
NCI-H460 = system: NCI-H460
DMS-114 = system: DMS-114
SK-MEL-5 = system: SK-MEL-5
UACC-62 = system: UACC-62
UACC-257 = system: UACC-257
Malme-3M = system: Malme-3M
SF-295 = system: SF-295
HCT-116 = system: HCT-116
OVCAR-3 = system: OVCAR-3
OVCAR-4 = system: OVCAR-4
KM-20L2 = system: KM-20L2
HOP-62 = system: HOP-62
SNB-75 = system: SNB-75
NCI-H23 = system: NCI-H23
OVCAR-5 = system: OVCAR-5
786-0 = system: 786-0
IGROV-1 = system: IGROV-1
SN12C = system: SN12C
ACHN = system: ACHN
M19-MEL = system: M19-MEL
NCI-H522 = system: NCI-H522
U-251 = system: U-251
LXFL 529 = system: LXFL 529
SK-MEL-28 = system: SK-MEL-28
A498 = system: A498
UO-31 = system: UO-31
A549 = system: A549
OVCAR-8 = system: OVCAR-8
RXF 631 = system: RXF 631
HT-29 = system: HT-29
HL-60 = system: HL-60
SF-539 = system: SF-539
CAKI-1 = system: CAKI-1
RPMI-8226 = system: RPMI-8226
DLD-1 = system: DLD-1
HCT-15 = system: HCT-15
CCRF-CEM = system: CCRF-CEM
KM12 = system: KM12
SW-620 = system: SW-620
HCC 2998 = system: HCC 2998
SF-268 = system: SF-268
MOLT-4 = system: MOLT-4
SK-MEL-2 = system: SK-MEL-2
RXF 393 = system: RXF 393
DMS-273 = system: DMS-273
SNB-19 = system: SNB-19
EKVX = system: EKVX
M14 = system: M14
NCI-H226 = system: NCI-H226
LOX IMVI = system: LOX IMVI
K562 = system: K562
SR = system: SR
TK-10 = system: TK-10
SK-OV-3 = system: SK-OV-3
HOP-92 = system: HOP-92
SNB-78 = system: SNB-78
COLO 205 = system: COLO 205

In the case of `CC(=O)Oc1ccccc1` [ACETIC ACID PHENYL ESTER], the GI50 (NCI-H460) is reported as > 100 µM (inactive), the GI50 (DMS-114) is reported as > 100 µM (inactive) and the GI50 (SK-MEL-5) is reported as > 100 µM (inactive). For the same compound, the GI50 (UACC-62) was > 100 µM (inactive), the GI50 (UACC-257) was > 100 µM (inactive) and the GI50 (Malme-3M) was > 100 µM (inactive). The GI50 (SF-295) was > 100 µM (inactive), the GI50 (HCT-116) was > 100 µM (inactive) and the GI50 (OVCAR-3) was > 100 µM (inactive). The GI50 (OVCAR-4) was > 100 µM (inactive), the GI50 (KM-20L2) was > 100 µM (inactive) and the GI50 (HOP-62) was > 100 µM (inactive). The GI50 (SNB-75) was > 100 µM (inactive), the GI50 (NCI-H23) was > 100 µM (inactive) and the GI50 (OVCAR-5) was > 100 µM (inactive). The GI50 (786-0) was > 100 µM (inactive), the GI50 (IGROV-1) was > 100 µM (inactive) and the GI50 (SN12C) was > 100 µM (inactive). The GI50 (ACHN) was > 100 µM (inactive), the GI50 (M19-MEL) was > 100 µM (inactive) and the GI50 (NCI-H522) was > 100 µM (inactive). For the same compound, the GI50 (U-251) was > 100 µM (inactive), the GI50 (LXFL 529) was > 100 µM (inactive) and the GI50 (SK-MEL-28) was > 100 µM (inactive). The GI50 (A498) was > 100 µM (inactive), the GI50 (UO-31) was > 100 µM (inactive) and the GI50 (A549) was > 100 µM (inactive). For the same compound, the GI50 (OVCAR-8) was > 100 µM (inactive), the GI50 (RXF 631) was > 100 µM (inactive) and the GI50 (HT-29) was > 100 µM (inactive). The GI50 (HL-60) was > 100 µM (inactive), the GI50 (SF-539) was > 100 µM (inactive) and the GI50 (CAKI-1) was > 100 µM (inactive). For the same compound, the GI50 (RPMI-8226) was > 100 µM (inactive), the GI50 (DLD-1) was > 100 µM (inactive) and the GI50 (HCT-15) was > 100 µM. The GI50 (CCRF-CEM) was > 100 µM (inactive), the GI50 (KM12) was > 100 µM (inactive) and the GI50 (SW-620) was > 100 µM (inactive). For the same compound, the GI50 (HCC 2998) was > 10 µM (inactive), the GI50 (SF-268) was > 100 µM (inactive) and the GI50 (MOLT-4) was > 100 µM (inactive). The GI50 (SK-MEL-2) was > 100 µM (inactive), the GI50 (RXF 393) was > 100 µM (inactive) and the GI50 (DMS-273) was > 100 µM (inactive). The GI50 (SNB-19) was > 100 µM (inactive), the GI50 (EKVX) was > 100 µM (inactive) and the GI50 (M14) was > 100 µM (inactive). The GI50 (NCI-H226) was > 100 µM (inactive), the GI50 (LOX IMVI) was > 100 µM (inactive) and the GI50 (K562) was > 100 µM (inactive).

For `CCN(CC)CSc1nc2ccccc2o1`, the GI50 (NCI-H460) was > 100 µM (inactive), the GI50 (DMS-114) was > 100 µM (inactive) and the GI50 (UACC-62) was > 100 µM (inactive). The GI50 (UACC-257) was > 100 µM (inactive), the GI50 (SF-295) was > 100 µM (inactive) and the GI50 (HCT-116) was > 100 µM (inactive). The GI50 (SR) was > 100 µM (inactive), the GI50 (HOP-62) was > 100 µM (inactive) and the GI50 (NCI-H23) was > 100 µM (inactive). For the same compound, the GI50 (OVCAR-5) was > 100 µM (inactive), the GI50 (IGROV-1) was > 100 µM (inactive) and the GI50 (ACHN) was > 100 µM (inactive). For the same compound, the GI50 (M19-MEL) was > 100 µM (inactive), the GI50 (NCI-H522) was > 100 µM (inactive) and the GI50 (U-251) was > 100 µM (inactive). For the same compound, the GI50 (SK-MEL-28) was > 100 µM (inactive), the GI50 (A498) was > 100 µM (inactive) and the GI50 (UO-31) was > 100 µM (inactive). For the same compound, the GI50 (A549) was > 100 µM (inactive), the GI50 (OVCAR-8) was > 100 µM (inactive) and the GI50 (RXF 631) was > 100 µM (inactive). For the same compound, the GI50 (HT-29) was > 100 µM (inactive), the GI50 (HL-60) was > 100 µM (inactive) and the GI50 (TK-10) was > 100 µM (inactive). For the same compound, the GI50 (SK-OV-3) was > 100 µM (inactive), the GI50 (CCRF-CEM) was > 100 µM (inactive) and the GI50 (KM12) was > 100 µM (inactive). The GI50 (HOP-92) was > 100 µM (inactive), the GI50 (MOLT-4) was > 100 µM (inactive) and the GI50 (SNB-78) was > 100 µM (inactive). The GI50 (RXF 393) was > 100 µM (inactive), the GI50 (DMS-273) was > 100 µM (inactive) and the GI50 (SNB-19) was > 100 µM (inactive). For the same compound, the GI50 (EKVX) was > 100 µM (inactive) and the GI50 (M14) was > 100 µM (inactive).

For `CN/N=C(/c1nc2ccc([N+](=O)[O-])cc2nc1O)C(O)c1ccc(C(O)/C(=N\NC)c2nc3ccc([N+](=O)[O-])cc3nc2O)cc1` (centres undefined), the GI50 (NCI-H460) was 42.6 µM (inactive), the GI50 (DMS-114) was 7.16 µM (inactive) and the GI50 (SK-MEL-5) was > 100 µM (inactive). For the same compound, the GI50 (UACC-62) was 44.9 µM (inactive), the GI50 (UACC-257) was 52.6 µM (inactive) and the GI50 (Malme-3M) was > 100 µM (inactive). The GI50 (SF-295) was 66.4 µM (inactive), the GI50 (HCT-116) was > 100 µM (inactive) and the GI50 (OVCAR-3) was > 100 µM (inactive). The GI50 (KM-20L2) was 63 µM (inactive), the GI50 (HOP-62) was 42.2 µM (inactive) and the GI50 (SNB-75) was > 100 µM (inactive). The GI50 (NCI-H23) was > 100 µM (inactive), the GI50 (OVCAR-5) was > 100 µM (inactive) and the GI50 (786-0) was > 100 µM (inactive). The GI50 (IGROV-1) was > 100 µM (inactive), the GI50 (ACHN) was 46.9 µM (inactive) and the GI50 (M19-MEL) was > 100 µM (inactive). The GI50 (U-251) was > 100 µM (inactive), the GI50 (LXFL 529) was 20.7 µM (inactive) and the GI50 (SK-MEL-28) was > 100 µM (inactive). For the same compound, the GI50 (A498) was > 100 µM (inactive), the GI50 (UO-31) was 55 µM (inactive) and the GI50 (A549) was 64.6 µM (inactive). The GI50 (OVCAR-8) was > 100 µM (inactive), the GI50 (RXF 631) was 21.3 µM (inactive) and the GI50 (HT-29) was > 100 µM (inactive). For the same compound, the GI50 (HL-60) was 4.37 µM (inactive), the GI50 (TK-10) was > 100 µM (inactive) and the GI50 (SF-539) was 42.6 µM (inactive). The GI50 (SK-OV-3) was > 100 µM (inactive), the GI50 (CAKI-1) was > 100 µM (inactive) and the GI50 (RPMI-8226) was 68.1 µM (inactive). For the same compound, the GI50 (DLD-1) was 35.6 µM (inactive), the GI50 (HCT-15) was 29.5 µM and the GI50 (CCRF-CEM) was 19.8 µM (inactive). For the same compound, the GI50 (KM12) was > 100 µM (inactive), the GI50 (SW-620) was 82.8 µM (inactive) and the GI50 (HOP-92) was > 100 µM (inactive). The GI50 (HCC 2998) was 23.9 µM (inactive), the GI50 (SF-268) was > 100 µM (inactive) and the GI50 (COLO 205) was 64.9 µM (inactive). For the same compound, the GI50 (MOLT-4) was 48.2 µM (inactive), the GI50 (SNB-78) was > 100 µM (inactive) and the GI50 (SK-MEL-2) was 48 µM (inactive). For the same compound, the GI50 (RXF 393) was > 100 µM (inactive), the GI50 (DMS-273) was 31.4 µM (inactive) and the GI50 (SNB-19) was > 100 µM (inactive). For the same compound, the GI50 (EKVX) was > 100 µM (inactive), the GI50 (M14) was 52.4 µM (inactive) and the GI50 (NCI-H226) was > 100 µM (inactive). For the same compound, the GI50 (LOX IMVI) was > 100 µM (inactive) and the GI50 (K562) was 32.5 µM (inactive).
